According to ChEMBL document CHEMBL1201862, “PubChem BioAssay data set” (2004):
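Compound exposure: 48 hours, 5 concentrations, 96-well plates. GI50 is the concentration that inhibits growth by half.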 Active and inactive are the calls of the source. Cut-off read from the data, not from the text of the source: active = GI50 up to about 1.1 µM and inactive = higher.

How the values were obtained:
Assay in all cases: DTP human tumour cell line panel, 48 h
[1] = test system: UACC-257
[2] = test system: SW-620
[3] = test system: MCF7
[4] = test system: NCI-H226
[5] = test system: SK-MEL-2
[6] = test system: SF-539
[7] = test system: M14
[8] = test system: ACHN
[9] = test system: CCRF-CEM
[10] = test system: A549
[11] = test system: 786-0
[12] = test system: EKVX
[13] = test system: SK-MEL-28
[14] = test system: A498
[15] = test system: Hs-578T
[16] = test system: T47D
[17] = test system: HL-60
[18] = test system: SN12C
[19] = test system: BT-549
[20] = test system: MDA-N
[21] = test system: HCT-116
[22] = test system: HOP-62
[23] = test system: OVCAR-8
[24] = test system: U-251
[25] = test system: PC-3
[26] = test system: LOX IMVI
[27] = test system: Malme-3M
[28] = test system: NCI-H23
[29] = test system: OVCAR-5
[30] = test system: OVCAR-4
[31] = test system: NCI-H522
[32] = test system: KM12
[33] = test system: HT-29
[34] = test system: SNB-75
[35] = test system: CAKI-1
[36] = test system: COLO 205
[37] = test system: SF-268
[38] = test system: SF-295
[39] = test system: TK-10
[40] = test system: MDA-MB-231
[41] = test system: SK-OV-3
[42] = test system: NCI/ADR-RES
[43] = test system: UACC-62
[44] = test system: MDA-MB-435
[45] = test system: UO-31
[46] = test system: DU-145
[47] = test system: HCT-15
[48] = test system: SNB-19
[49] = test system: SK-MEL-5
[50] = test system: RXF 393
[51] = test system: IGROV-1
[52] = test system: RPMI-8226
[53] = test system: OVCAR-3
[54] = test system: MOLT-4
[55] = test system: K562
[56] = test system: HOP-92
[57] = test system: HCC 2998
[58] = test system: NCI-H460
[59] = test system: SR

SMILES: C=C(C(=O)O)C1CCC(CC/C=C(\C)CC/C=C(\C)CCC=C(C)C)CO1 (stereo unspecified)
- GI50 [1]: 15.3 µM (inactive)
- GI50 [2]: 15.7 µM (inactive)
- GI50 [3]: 5.97 µM (inactive)
- GI50 [4]: 0.0723 µM (active)
- GI50 [5]: 17.3 µM (inactive)
- GI50 [6]: 12.1 µM (inactive)
- GI50 [7]: 11.1 µM (inactive)
- GI50 [8]: 28.6 µM (inactive)
- GI50 [9]: 22.6 µM (inactive)
- GI50 [10]: 7.89 µM (inactive)
- GI50 [11]: 11 µM (inactive)
- GI50 [12]: 13.3 µM (inactive)
- GI50 [13]: 14.3 µM (inactive)
- GI50 [14]: 19.4 µM (inactive)
- GI50 [15]: 12 µM (inactive)
- GI50 [16]: 26.2 µM (inactive)
- GI50 [17]: 4.01 µM (inactive)
- GI50 [18]: 14.2 µM (inactive)
- GI50 [19]: 18 µM (inactive)
- GI50 [20]: 11 µM (inactive)
- GI50 [21]: 4.99 µM (inactive)
- GI50 [22]: 23.1 µM (inactive)
- GI50 [23]: 18.8 µM (inactive)
- GI50 [24]: 20.1 µM (inactive)
- GI50 [25]: 24.8 µM (inactive)
- GI50 [26]: 12.2 µM (inactive)
- GI50 [27]: 21.5 µM (inactive)
- GI50 [28]: 18.5 µM (inactive)
- GI50 [29]: 18 µM (inactive)
- GI50 [30]: 27.4 µM (inactive)
- GI50 [31]: 20.7 µM (inactive)
- GI50 [32]: 14.8 µM (inactive)
- GI50 [33]: 11.7 µM (inactive)
- GI50 [34]: > 100 µM (inactive)
- GI50 [35]: 32.3 µM (inactive)
- GI50 [36]: 11.2 µM (inactive)
- GI50 [37]: 28.2 µM (inactive)
- GI50 [38]: 18.2 µM (inactive)
- GI50 [39]: 23 µM (inactive)
- GI50 [40]: 42.7 µM (inactive)
- GI50 [41]: 82.2 µM (inactive)
- GI50 [42]: 27.1 µM (inactive)
- GI50 [43]: 40 µM (inactive)
- GI50 [44]: 18 µM (inactive)
- GI50 [45]: 12.5 µM (inactive)
- GI50 [46]: 17.5 µM (inactive)
- GI50 [47]: 13 µM
- GI50 [48]: 13.6 µM (inactive)
- GI50 [49]: 12.5 µM (inactive)
- GI50 [50]: 12.4 µM (inactive)
- GI50 [51]: 18.5 µM (inactive)

SMILES: O=S(=O)(O)c1cccc2ccc(O)c(/N=N\c3ccc(S(=O)(=O)c4ccc(/N=N/c5c(O)ccc6cccc(S(=O)(=O)O)c56)cc4)cc3)c12
- GI50 [1]: > 100 µM (inactive)
- GI50 [2]: > 100 µM (inactive)
- GI50 [4]: > 100 µM (inactive)
- GI50 [5]: > 100 µM (inactive)
- GI50 [52]: > 100 µM (inactive)
- GI50 [53]: > 100 µM (inactive)
- GI50 [7]: > 100 µM (inactive)
- GI50 [8]: > 100 µM (inactive)
- GI50 [9]: > 100 µM (inactive)
- GI50 [10]: > 100 µM (inactive)
- GI50 [11]: > 100 µM (inactive)
- GI50 [12]: > 100 µM (inactive)
- GI50 [13]: > 100 µM (inactive)
- GI50 [15]: > 100 µM (inactive)
- GI50 [16]: > 100 µM (inactive)
- GI50 [17]: < 0.01 µM (active)
- GI50 [18]: > 100 µM (inactive)
- GI50 [54]: > 100 µM (inactive)
- GI50 [19]: > 100 µM (inactive)
- GI50 [20]: > 100 µM (inactive)
- GI50 [55]: 50.4 µM (inactive)
- GI50 [21]: > 100 µM (inactive)
- GI50 [22]: > 100 µM (inactive)
- GI50 [23]: > 100 µM (inactive)
- GI50 [24]: > 100 µM (inactive)
- GI50 [25]: > 100 µM (inactive)
- GI50 [27]: > 100 µM (inactive)
- GI50 [28]: > 100 µM (inactive)
- GI50 [29]: > 100 µM (inactive)
- GI50 [30]: > 100 µM (inactive)
- GI50 [31]: > 100 µM (inactive)
- GI50 [32]: 67.3 µM (inactive)
- GI50 [33]: > 100 µM (inactive)
- GI50 [34]: 65.5 µM (inactive)
- GI50 [35]: > 100 µM (inactive)
- GI50 [36]: > 100 µM (inactive)
- GI50 [37]: > 100 µM (inactive)
- GI50 [38]: > 100 µM (inactive)
- GI50 [56]: > 100 µM (inactive)
- GI50 [39]: > 100 µM (inactive)
- GI50 [40]: > 100 µM (inactive)
- GI50 [41]: > 100 µM (inactive)
- GI50 [42]: > 100 µM (inactive)
- GI50 [43]: > 100 µM (inactive)
- GI50 [44]: > 100 µM (inactive)
- GI50 [45]: 63.4 µM (inactive)
- GI50 [46]: > 100 µM (inactive)
- GI50 [47]: > 100 µM
- GI50 [48]: > 100 µM (inactive)
- GI50 [49]: > 100 µM (inactive)
- GI50 [50]: > 100 µM (inactive)
- GI50 [51]: 81.5 µM (inactive)

SMILES: Nc1ccc(/N=N/c2c(S(=O)(=O)O)cc3ccccc3c2S(=O)(=O)O)cc1
- GI50 [1]: > 100 µM (inactive)
- GI50 [2]: > 100 µM (inactive)
- GI50 [57]: > 100 µM (inactive)
- GI50 [4]: > 100 µM (inactive)
- GI50 [5]: > 100 µM (inactive)
- GI50 [53]: > 100 µM (inactive)
- GI50 [7]: > 100 µM (inactive)
- GI50 [8]: > 100 µM (inactive)
- GI50 [9]: 34.8 µM (inactive)
- GI50 [10]: > 100 µM (inactive)
- GI50 [11]: > 100 µM (inactive)
- GI50 [12]: > 100 µM (inactive)
- GI50 [13]: > 100 µM (inactive)
- GI50 [14]: > 100 µM (inactive)
- GI50 [15]: > 100 µM (inactive)
- GI50 [16]: > 100 µM (inactive)
- GI50 [58]: > 100 µM (inactive)
- GI50 [18]: > 100 µM (inactive)
- GI50 [54]: > 100 µM (inactive)
- GI50 [19]: > 100 µM (inactive)
- GI50 [20]: > 100 µM (inactive)
- GI50 [55]: > 100 µM (inactive)
- GI50 [21]: > 100 µM (inactive)
- GI50 [22]: > 100 µM (inactive)
- GI50 [23]: > 100 µM (inactive)
- GI50 [24]: > 100 µM (inactive)
- GI50 [25]: > 100 µM (inactive)
- GI50 [26]: > 100 µM (inactive)
- GI50 [27]: > 100 µM (inactive)
- GI50 [28]: > 100 µM (inactive)
- GI50 [29]: > 100 µM (inactive)
- GI50 [30]: > 100 µM (inactive)
- GI50 [31]: > 100 µM (inactive)
- GI50 [32]: > 100 µM (inactive)
- GI50 [33]: > 100 µM (inactive)
- GI50 [34]: > 100 µM (inactive)
- GI50 [35]: > 100 µM (inactive)
- GI50 [37]: > 100 µM (inactive)
- GI50 [38]: > 100 µM (inactive)
- GI50 [56]: > 100 µM (inactive)
- GI50 [39]: > 100 µM (inactive)
- GI50 [40]: > 100 µM (inactive)
- GI50 [42]: > 100 µM (inactive)
- GI50 [43]: > 100 µM (inactive)
- GI50 [44]: > 100 µM (inactive)
- GI50 [45]: > 100 µM (inactive)
- GI50 [46]: > 100 µM (inactive)
- GI50 [47]: > 100 µM
- GI50 [48]: > 100 µM (inactive)
- GI50 [49]: > 100 µM (inactive)
- GI50 [50]: > 100 µM (inactive)
- GI50 [51]: > 100 µM (inactive)
- GI50 [59]: > 100 µM (inactive)
